Assay results taken from ChEMBL document CHEMBL1201862, “PubChem BioAssay data set” (2004).
Structures can show the parent of a compound that is named as a salt. Active and inactive are the calls of the source.

How the values were obtained:
[1] = inhibitors of HIV Env-driven cell fusion, dose response, cherry-pick (AID 652057); format: functional, cell-based
[2] = inhibitors of clade B AD8 Env fusion, dose response, cell-based, cherry-pick (AID 652062); format: functional;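 further: luciferase signal from cell-cell fusion driven by HIV-1 clade B AD8 Env; potency is for inhibitors of fusion seen as a drop in luminescence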
[3] = test system: BJ; experiment: cells; format: functional, cell-based; conditions: Homo sapiens
[4] = C. albicans growth with fluconazole, confirmation, fluorescence, retest (AID 2467); format: functional, cell-based
[5] = test system: BJ; experiment: cytotoxicity toward BJ-TERT-LT-ST fibroblasts, dose response, cell-based, RAS-independent, luminescence (AID 1935); format: functional; conditions: Homo sapiens;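 further: BJ fibroblasts immortalized with TERT plus LT and ST oncogenes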
[6] = cytotoxicity toward DRD oncogenic fibroblasts, dose response, cell-based, non-viral oncogenic, luminescence (AID 1934); format: functional; conditions: Homo sapiens
[7] = target: Paired box protein Pax-8 (Homo sapiens, UniProt Q06710); experiment: inhibitors of PAX8-driven TPO luciferase reporter, dose response, RMG-I cells, cherry-pick (AID 687027); format: functional, cell-based;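 further: luciferase reporter driven by Pax8 target thyroperoxidase promoter measured by SteadyGlo luminescence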
Sequence of Paired box protein Pax-8 (Q06710 whole entry): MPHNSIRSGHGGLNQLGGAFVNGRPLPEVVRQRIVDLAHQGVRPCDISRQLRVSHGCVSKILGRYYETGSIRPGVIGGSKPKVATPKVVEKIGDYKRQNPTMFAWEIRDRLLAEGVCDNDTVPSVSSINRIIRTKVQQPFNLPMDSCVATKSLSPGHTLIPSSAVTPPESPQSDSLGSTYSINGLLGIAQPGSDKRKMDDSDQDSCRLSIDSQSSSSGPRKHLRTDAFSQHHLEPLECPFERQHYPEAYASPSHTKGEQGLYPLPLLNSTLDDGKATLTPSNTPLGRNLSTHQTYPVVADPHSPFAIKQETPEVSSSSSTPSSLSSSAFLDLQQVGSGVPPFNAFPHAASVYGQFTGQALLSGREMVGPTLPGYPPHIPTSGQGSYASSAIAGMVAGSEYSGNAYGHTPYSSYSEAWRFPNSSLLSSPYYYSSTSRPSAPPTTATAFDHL

[8] = target: T1, DNA repair protein RAD52 homolog (Homo sapiens, UniProt P43351); format: functional, biochemical
T1 sequence (P43351 whole entry): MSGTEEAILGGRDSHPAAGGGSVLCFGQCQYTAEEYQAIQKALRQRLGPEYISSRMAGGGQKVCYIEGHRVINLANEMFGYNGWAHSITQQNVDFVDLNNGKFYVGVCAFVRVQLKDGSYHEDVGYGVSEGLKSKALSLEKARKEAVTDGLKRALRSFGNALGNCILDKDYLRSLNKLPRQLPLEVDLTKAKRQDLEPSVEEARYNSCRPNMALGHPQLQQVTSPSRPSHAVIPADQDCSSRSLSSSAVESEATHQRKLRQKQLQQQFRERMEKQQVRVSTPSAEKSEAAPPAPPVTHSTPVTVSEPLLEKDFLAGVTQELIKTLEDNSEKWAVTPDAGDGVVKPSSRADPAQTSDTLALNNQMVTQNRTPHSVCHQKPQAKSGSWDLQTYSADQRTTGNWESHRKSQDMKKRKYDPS

[9] = target: T2, Protein skinhead-1 (Caenorhabditis elegans, UniProt P34707); format: functional
T2 sequence (P34707 whole entry): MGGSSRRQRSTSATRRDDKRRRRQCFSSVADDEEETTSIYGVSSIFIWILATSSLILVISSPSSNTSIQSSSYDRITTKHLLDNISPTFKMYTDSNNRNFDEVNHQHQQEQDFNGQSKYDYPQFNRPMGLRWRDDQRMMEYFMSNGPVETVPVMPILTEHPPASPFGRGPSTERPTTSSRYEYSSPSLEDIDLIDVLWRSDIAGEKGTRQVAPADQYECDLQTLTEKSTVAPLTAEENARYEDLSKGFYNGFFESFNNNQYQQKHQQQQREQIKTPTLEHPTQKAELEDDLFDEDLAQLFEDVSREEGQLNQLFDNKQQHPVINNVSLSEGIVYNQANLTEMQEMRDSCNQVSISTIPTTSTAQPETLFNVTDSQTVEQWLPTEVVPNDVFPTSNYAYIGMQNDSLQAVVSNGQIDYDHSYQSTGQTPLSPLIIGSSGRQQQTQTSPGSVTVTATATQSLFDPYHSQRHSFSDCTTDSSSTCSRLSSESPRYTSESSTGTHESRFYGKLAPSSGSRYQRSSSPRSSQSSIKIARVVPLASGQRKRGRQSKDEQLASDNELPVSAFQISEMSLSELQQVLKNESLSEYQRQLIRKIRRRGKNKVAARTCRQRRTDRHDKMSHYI

[10] = NIH-3T3 fibroblast cytotoxicity, dose response, cytotoxicity control, cell-based, fluorescence, Alamar Blue, secondary assay (AID 2327); format: functional;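 further: NIH-3T3 mouse fibroblasts cultured with fluconazole at 8 µg/mL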
[11] = cells; format: functional, cell-based
[12] = cells; format: functional, cell-based; remark: listed apart in the source
[13] = cells; format: functional
[14] = target: T3, Rac GTPase-activating protein 1 (Homo sapiens, UniProt Q9H0H5); experiment: MgcRacGAP GTPase-activating activity inhibitors, confirmation, biochemical, ADP Hunter fluorescence, primary and confirmatory (AID 624330); format: functional
T3 sequence (Q9H0H5 whole entry): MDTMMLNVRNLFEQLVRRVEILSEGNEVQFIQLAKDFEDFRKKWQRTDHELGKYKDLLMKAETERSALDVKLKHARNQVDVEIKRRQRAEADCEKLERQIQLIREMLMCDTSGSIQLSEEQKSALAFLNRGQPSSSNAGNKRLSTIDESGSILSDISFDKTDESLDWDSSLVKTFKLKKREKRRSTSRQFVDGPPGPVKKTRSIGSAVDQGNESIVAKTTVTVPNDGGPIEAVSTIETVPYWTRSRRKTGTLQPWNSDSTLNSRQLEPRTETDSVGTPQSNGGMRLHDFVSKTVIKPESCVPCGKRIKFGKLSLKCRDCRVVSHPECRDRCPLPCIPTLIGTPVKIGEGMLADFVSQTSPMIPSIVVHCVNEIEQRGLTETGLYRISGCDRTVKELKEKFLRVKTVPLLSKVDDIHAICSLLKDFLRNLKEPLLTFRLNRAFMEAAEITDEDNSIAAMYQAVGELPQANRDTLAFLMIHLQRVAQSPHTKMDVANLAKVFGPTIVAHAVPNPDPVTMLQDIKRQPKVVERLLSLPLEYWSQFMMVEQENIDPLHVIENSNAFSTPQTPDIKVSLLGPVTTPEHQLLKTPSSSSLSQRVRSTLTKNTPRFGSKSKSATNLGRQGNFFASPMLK

[15] = test system: Vero; experiment: cells; format: functional; conditions: Chlorocebus sabaeus
[16] = target: T4, Corticotropin-releasing factor receptor 2/Corticotropin-releasing factor-binding protein (Homo sapiens, UniProt P24387+Q13324); experiment: Dose Response confirmation of uHTS hits for small molecule antagonists of the CRF-binding protein and CRF-R2 receptor complex.; format: functional; conditions: read-out: IC50_Mean
T4 sequence (Q13324 whole entry): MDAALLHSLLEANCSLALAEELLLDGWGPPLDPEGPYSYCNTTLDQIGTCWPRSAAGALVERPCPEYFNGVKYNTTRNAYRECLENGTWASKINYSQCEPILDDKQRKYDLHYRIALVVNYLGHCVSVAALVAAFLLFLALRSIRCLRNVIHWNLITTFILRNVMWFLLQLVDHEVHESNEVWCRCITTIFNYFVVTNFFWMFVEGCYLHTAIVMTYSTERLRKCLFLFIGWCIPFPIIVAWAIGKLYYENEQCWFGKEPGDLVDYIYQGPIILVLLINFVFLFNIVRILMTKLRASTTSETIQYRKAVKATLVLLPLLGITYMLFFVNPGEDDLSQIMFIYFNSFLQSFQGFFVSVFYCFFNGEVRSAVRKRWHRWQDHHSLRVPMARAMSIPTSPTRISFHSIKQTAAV
T4 sequence (P24387 whole entry): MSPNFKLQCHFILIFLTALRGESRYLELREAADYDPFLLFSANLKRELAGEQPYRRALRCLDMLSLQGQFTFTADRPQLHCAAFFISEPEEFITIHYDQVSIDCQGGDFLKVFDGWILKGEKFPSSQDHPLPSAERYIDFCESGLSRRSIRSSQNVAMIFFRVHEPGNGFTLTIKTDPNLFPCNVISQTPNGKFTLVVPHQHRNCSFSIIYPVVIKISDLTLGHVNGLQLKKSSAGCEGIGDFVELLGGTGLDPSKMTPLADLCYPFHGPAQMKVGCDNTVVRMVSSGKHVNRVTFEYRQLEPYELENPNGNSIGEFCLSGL

[17] = target: T4, Corticotropin-releasing factor receptor 2/Corticotropin-releasing factor-binding protein; experiment: activators of CRF receptor 2 with binding protein – uHTS hits, confirmation (AID 602473); format: functional; conditions: read-out: EC50_Mean
[18] = test system: Streptococcus sp. 'group A'; experiment: growth inhibition of control SK(-) GAS strain, dose response, counter-screen for streptokinase expression inhibitor project, luminescence, kanamycin, BacTiterGlo, confirmation (AID 1900); format: functional, organism-based
[19] = target: T5, Streptokinase A (Streptococcus pyogenes serotype M1, UniProt P10520); experiment: S. pyogenes streptokinase expression inhibitors, potency, dose response, plasminogen activation absorbance, OD405 (AID 1914); format: functional, Streptococcus pyogenes M1 GAS;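 further: secreted streptokinase activity via plasminogen activation per viability signal from cell pellet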
T5 sequence (P10520 whole entry): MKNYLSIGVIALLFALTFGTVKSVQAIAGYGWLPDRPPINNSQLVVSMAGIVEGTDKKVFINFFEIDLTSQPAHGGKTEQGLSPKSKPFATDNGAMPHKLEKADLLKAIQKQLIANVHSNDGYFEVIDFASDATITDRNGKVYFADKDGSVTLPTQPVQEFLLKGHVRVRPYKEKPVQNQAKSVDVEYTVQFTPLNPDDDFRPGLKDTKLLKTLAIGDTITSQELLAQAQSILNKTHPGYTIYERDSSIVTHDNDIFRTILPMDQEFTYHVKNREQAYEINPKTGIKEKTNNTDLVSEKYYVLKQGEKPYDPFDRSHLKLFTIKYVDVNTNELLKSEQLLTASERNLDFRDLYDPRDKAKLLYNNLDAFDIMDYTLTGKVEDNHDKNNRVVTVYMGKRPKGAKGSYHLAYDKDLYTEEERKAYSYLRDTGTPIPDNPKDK

[20] = test system: Streptococcus; experiment: Group A Streptococcus viability loss, dose response, counter-screen for streptokinase expression inhibitor project, luminescence, BacTiterGlo (AID 1915); format: functional, organism-based;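 further: potency for reduction of bacterial viability or growth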
[21] = NIH:OVCAR-3 ovarian cancer cell cytotoxicity, dose response, PAX8 inhibitor project, plate reader, dry powder samples (AID 743044); format: functional, cell-based
[22] = cytotoxicity in OVCAR8 ovarian cancer cells, dose response, PAX8 project, cell-based, plate reader, dry powder samples (AID 743197); format: functional; conditions: OVCAR-8

SMILES: C[C@H](CO)N1C[C@H](C)[C@H](CN(C)S(=O)(=O)c2cccs2)Oc2ccc(NC(=O)NC3CCCCC3)cc2CC1=O
- AC50 [1]: 1.19 µM (active)
- AC50 [2]: 3.49 µM (active)

SMILES: CCOc1ccccc1C1C2=C(O)OCC2=Nc2cc3c(cc21)OCO3 (stereo not given)
- EC50 [3]: 1.11 µM (inconclusive)
- EC50 [4]: > 38 µM (not active)
- EC50 [5]: 0.442 µM (active)
- EC50 [6]: 0.468 µM (active)
- AC50 [7]: 2.15 µM (active)

SMILES: CN/C(=C\[N+](=O)[O-])NCCSCc1ccc(CN(C)C)o1 [RANITIDINE HYDROCHLORIDE]
- AC50 [8]: 11.8 µM (active)

SMILES: COC(=O)CN1C(=S)N(c2ccc(OC)cc2)C(=O)/C1=C/c1ccc(N2CCOCC2)cc1
- IC50 [9]: > 100 µM (inactive)

SMILES: CCOC(=O)/C(=N\Nc1cccc(C(F)(F)F)c1)N1CCOCC1
- EC50 [10]: > 160 µM (inconclusive)
- EC50 [11]: > 350 µM (not active)
- EC50 [4]: > 38 µM (not active)
- EC50 [12]: 320 µM (active)

SMILES: Fc1ccc(-c2cnc(-c3cccs3)o2)cc1
- IC50 [9]: 24 µM (active)

SMILES: Cc1ccsc1C(=O)OCC(=O)Nc1nnc(-c2ccccc2)o1
- EC50 [10]: > 160 µM (inactive)
- EC50 [4]: 3.98 µM (active)
- IC50 [13]: 15.1 µM (active)

SMILES: CC[N+](CC)(CC)CCCCOc1ccc2c(c1)C(=O)c1cc(OCCCC[N+](CC)(CC)CC)ccc1-2
- IC50 [14]: 221 µM (active)
- AC50 [8]: 0.506 µM (active)

SMILES: Cc1cc(N2CCN(C)CC2)nc2ccc(NC(=S)N3CCCCC3)cc12
- AC50 [8]: 10.9 µM (active)

SMILES: O=C(C[C@H]1CC[C@@H](NC(=O)c2cccc(F)c2)[C@H](CO)O1)NCc1ccc(Oc2ccccc2)cc1
- AC50 [1]: 1.2 µM (active)
- AC50 [2]: 1.17 µM (active)

SMILES: Cc1ccc(/C=N/NC(=S)Nc2cccc(S(=O)(=O)N(C)C)c2)o1
- CC50 [15]: > 25 µM (active)
- IC50 [16]: > 47.1 µM (inactive)
- EC50 [17]: > 53 µM (inactive)

SMILES: Cn1ccs/c1=N\C(=O)c1ccc(OC(F)(F)F)cc1
- IC50 [9]: 29.8 µM (active)

SMILES: O=C(Nc1nnc(-c2ccc(Br)cc2)o1)c1ccco1
- EC50 [18]: 3.78 µM (active)
- EC50 [19]: > 150 µM (not active)
- EC50 [20]: 13.7 µM (active)
- IC50 [13]: 3.95 µM (active)

SMILES: Cc1ccc(OC(=O)N(C)C[C@@H]2OCc3ccccc3-c3c(n(C)c4ccccc34)C(=O)N([C@@H](C)CO)C[C@H]2C)cc1
- AC50 [7]: 4.78 µM (active)
- AC50 [21]: 39.9 µM (active)
- AC50 [22]: > 70 µM (inactive)

SMILES: CCNC(=O)C[C@@H]1CC[C@@H]2[C@@H](COc3ccc(NC(=O)Cc4cccs4)cc3C(=O)N2C)O1
- AC50 [2]: 41.5 µM (active)

SMILES: CC(C)CC#Cc1ccc2c(c1)O[C@@H](CN(C)S(=O)(=O)c1ccc(F)cc1)[C@H](C)CN([C@@H](C)CO)S2(=O)=O
- AC50 [1]: 30.8 µM (active)
- AC50 [7]: 9.45 µM (active)
- AC50 [2]: 44.9 µM (active)
- AC50 [22]: 61 µM (active)

SMILES: CN(CC1CCCO1)S(=O)(=O)c1ccc(C(=O)Nc2nccs2)cc1 (stereo not given)
- EC50 [11]: > 350 µM (not active)
- EC50 [12]: > 350 µM (not active)

SMILES: COc1ccc(N/C=C\C(=O)c2ccc3c(c2)OCO3)cc1
- EC50 [11]: > 350 µM (not active)
- EC50 [12]: 4.39 µM (active)

SMILES: CN1CCN(C2Cc3ccc(Cl)cc3Sc3ccc(F)cc32)CC1 (stereo not given)
- EC50 [18]: 4.95 µM (active)
- EC50 [19]: > 150 µM (not active)
- EC50 [20]: 11.9 µM (active)
- AC50 [8]: 14.1 µM (active)

SMILES: Fc1cc(Cl)cc2ccc(-c3ccccc3)nc12
- IC50 [9]: 45.2 µM (active)

SMILES: O=C(OCC(=O)N1CCN(c2ccccc2)CC1)c1ccc(Cl)cc1[N+](=O)[O-]
- IC50 [13]: > 50 µM (active)

SMILES: O=C(c1cccnc1)c1cc2ccccc2[nH]1
- EC50 [11]: > 350 µM (not active)
- EC50 [12]: 31.3 µM (active)
